Data as given in patent US20250351832A1, “PHYTOCHEMICALS AS BIOPESTICIDES AND BIOSTIMULANTS” (KAY BEE BIO ORGANICS PVT. LTD., priority 2024, published 2025).
Read-outs that look alike come from different tables or passages of the source.

Assays:
Thrips [1] = experiment: whole plant or invertebrate; settings: in Gossypium hirsutum, 48 h
Alternaria alternata [2] = experiment: In vitro poisoned food technique against fungus (Ex. 20); format: cell-based; settings: poisoned food technique, PDA medium, dose 1 ml/gm/lit., after seven days
Helicoverpa armigera [3] = experiment: Controlled conditions, Helicoverpa armigera on chickpea plants (Ex. 25); settings: in vivo
[4] = cited from earlier work
Spodoptera litura [5] = settings: 72 h, 1 mL or g/L
tomato seedlings = experiment: Response of tomato plants, greenhouse growth (Ex. 30); format: in vivo; settings: tomato seedlings, dose 1 ml/gm/lit
Spodoptera litura [6] = experiment: Controlled conditions, Spodoptera litura on cabbage plants (Ex. 26); settings: in vivo
chili seedlings = experiment: Response of chili plants, greenhouse growth (Ex. 31); format: in vivo
Helicoverpa armigera [7] = experiment: In vitro bio-efficacy against Helicoverpa armigera (Ex. 17); settings: in vivo
Aphid [8] = experiment: whole plant or invertebrate; settings: 48 h
Thrips [9] = experiment: Greenhouse effect on thrips, cotton plants (Ex. 27); settings: in vivo
Aphid [10] = settings: 48 h, 1 mL or g/L
Mealy Bug [11] = experiment: In vitro bio-efficacy against mealy bug (Ex. 16); settings: in vivo
Aphid [12] = system: Aphid
Mite [13] = settings: Dose 1 ml/gm/lit.; 48 hrs
Thrips [14] = settings: 48 h
Mite [15] = experiment: Green house effect on mite, okra plants (Ex. 23); settings: in vivo
Thrips [16] = settings: 48 h, 1 mL or g/L
Spodoptera litura [17] = experiment: whole plant or invertebrate; settings: 72 h
Alternaria alternata [18] = experiment: Alternaria leaf spot/blight on inoculated tomato plants (Ex. 28); format: in vivo; settings: tomato plants, Alternaria alternata; after 7 days; dose 1 ml/gm/lit
Mealy Bug [19] = experiment: Green house effect on mealy bugs, cotton plants (Ex. 24); settings: in vivo
[20] = read-out: % Corrected Mortality at 48 Hrs.
[21] = read-out: % Mortality at 48 Hrs.
[22] = Table 13, descriptive, no test described
[23] = chili seedlings, dose 1 ml/gm/lit, 5th day after application
[24] = chili seedlings, dose 1 ml/gm/lit, 10th day
[25] = chili seedlings, dose 1 ml/gm/lit, 10th day after application

## C=CCc1ccc(OC)c(O)c1 [Chavibetol]
Thrips [1]; [20]
  mortality at 1 mL or g/L: 45.7%
Thrips [1]; [21]
  mortality at 1 mL or g/L: 52.5%
Alternaria alternata [2]
  Mean colony Diameter (mm): 55.50 mm
Alternaria alternata [2]; vs untreated control, read-out: % Inhibition of growth
  inhibition of growth at 1 mL or g/L: 36.9%
Helicoverpa armigera [3]
  % Corrected Mortality at 72 Hrs.: 47.50%
  % Mortality at 72 Hrs.: 47.50%
[4]; [22]
  Antioxidant Activity - Mode of action: Increasing Antioxidative
  Bactericidal Activity - Mode of action: Inhibit the reproduction
  Insecticidal Activities - Mode of action: Repellent
[4]; Table 13, effect on plants, descriptive
  Phytotonic Effect: trigger seed
Spodoptera litura [5]
  Total No. of dead insect at 72 Hrs.: 4.25
Tomato seedlings; 5th day after application
  Plant Height 5th Day: 7.26 cm
  Stem Girth 5th Day: 1.49 mm
  CCI 5th Day: 14.68
Tomato seedlings; 10th day after application
  Plant Height 10th Day: 8.34 cm
  Stem Girth 10th Day: 2.25 mm
  CCI 10th Day: 16.58
Tomato seedlings; 10th day
  Plant Height % Increase over pre on 10th Day: 36.50%
  Stem Girth % Increase over pre on 10th Day: 60.71%
  CCI % Increase over pre on 10th Day: 32.22%
  Root Length (cm) 10th Day: 4.69 cm
Tomato seedlings; 10th day, vs water control
  Root Length % Increase over control: 41.03%
Spodoptera litura [6]
  % Corrected Mortality at 72 Hrs.: 41.05%
  % Mortality at 72 Hrs.: 44.00%
Chili seedlings
  CCI Pre: 9.82
  Plant Height (cm) Pre: 4.39 cm
Chili seedlings; [23]
  CCI 5th Day: 14.58
  Plant Height (cm) 5th Day: 5.07 cm
Chili seedlings; [24]
  CCI % Increase over pre on 10th Day: 52.55%
  Plant Height % Increase over pre on 10th Day: 59.00%
  Root Lenght (cm) 10th Day: 3.60 cm
  Stem Girth % Increase over pre on 10th Day: 45.45%
Chili seedlings; [25]
  CCI 10th Day: 14.98
  Plant Height (cm) 10th Day: 6.98 cm
Chili seedlings; chili seedlings, dose 1 ml/gm/lit, 10th day, vs water control
  Root Lenght % Increase over control: 31.63%
Helicoverpa armigera [7]
  % Corrected Mortality at 72 Hrs.: 42.50%
  % Mortality at 72 Hrs.: 42.50%
Aphid [8]; [20]
  mortality at 1 mL or g/L: 47.1%
Aphid [8]; [21]
  mortality at 1 mL or g/L: 55%
Thrips [9]
  % Corrected Mortality at 48 Hrs.: 47.22%
Aphid [10]
  Total No. of dead insect at 48 Hrs.: 55.00
Mealy Bug [11]
  % Corrected Mortality at 48 Hrs.: 36.84%
  % Mortality at 48 Hrs.: 40.00%
Aphid [12]; 48 h
  Total No. of dead insect at 48 Hrs.: 5.50
Aphid [12]; Dose 1 ml/gm/lit., 48 hrs
  % Corrected Mortality at 48 Hrs.: 48.57%
Mite [13]
  % Corrected Mortality at 48 Hrs.: 18.92%
  % Mortality at 48 Hrs.: 25.00%
Thrips [14]
  Total No. of dead insect at 48 Hrs.: 52.50
Mite [15]
  % Corrected Mortality at 48 Hrs.: 18.42%
  % Mortality at 48 Hrs.: 22.50%
Thrips [16]
  Total No. of dead insect at 48 Hrs.: 5.25
Spodoptera litura [17]; read-out: % Corrected Mortality at 72 Hrs.
  mortality at 1 mL or g/L: 39.5%
Spodoptera litura [17]; read-out: % Mortality at 72 Hrs.
  mortality at 1 mL or g/L: 42.5%
Alternaria alternata [18]
  % Disease reduction over Control: 47.11%
Mealy Bug [19]
  % Corrected Mortality at 48 Hrs.: 38.89%
  % Mortality at 48 Hrs.: 45.00%
